From patent US7968109B2, “Liquid compositions for treating plant propagation materials” (Syngenta Crop Protection Inc., priority 2005, dated 2011)

Key:
[1] = Selective loading of active ingredient on cut side and skin side of tuber; assay type: physicochemical, potato; settings: analyte fludioxonil
Source text: Generally, treatment of potato tubers and/or cut seeds with liquid pesticides results in the majority of the pesticide settling on the cut side of the seed rather than on the skin side of the seed. Such affinity for the cut side is thought to be based on the pesticides' affinity for water. […] Rather, the pesticidal action is more useful on the skin side of the tuber, where the eyes are present and where germination occurs.
Although not wanting to be bound by any particular theory, it is thought that the nonpolar nature of the waxes and silicas present in the formulations of the present invention have affinity for the skin side, causing a greater loading of the active ingredients on the skin side.

Colorado Potato Beetles = experiment: Control of Colorado Potato Beetles on potatoes (defoliation); assay type: in vivo
Experimental: Comparative trials were conducted to show the protection of the formulation described herein against different insect pests.

N#Cc1c[nH]cc1-c1cccc2c1OC(F)(F)O2 [Fludioxonil]
Amount of fludioxonil present on cut side of tuber ([1]; cut side): 21
Amount of fludioxonil present on skin side of tuber ([1]; skin side): 21

O=[N+]([O-])NC1=NCCN1Cc1ccc(Cl)nc1 [Imidacloprid, imidacloprid]
% Defoliation (Colorado Potato Beetles; 102 days after planting (Wash. State)): 9%
% Defoliation (Colorado Potato Beetles; 105 days after planting (Idaho)): 0%
